This is an account of results in patent publication US12637464B2, “Tetracyclic compounds for treating brain disorders” (The Regents of the University of California, priority 2021, dated 2026).

For one test, the system named is PSYLI2 cells. The experiment in a line: PsychLight assays (agonist and antagonist mode). It counts as cell-based. Particulars: FIG. 3C-3E; agonist mode concentration-response, antagonist mode 1 μM. As for the experimental part: PsychLight Assays. Psychlight assays were performed using a previously published method. Briefly, glass bottom 96-well plates were coated with 50 μg/mL of poly-D-lysine overnight at room temperature and then washed with Dulbecco's PBS. PSYLI2 cells were suspended in DMEM containing 10% FBS with 5% penicillin-streptomycin, plated at a density of 40,000 cells/well, and incubated (37° C., 5% CO2) for 24 h prior to each experiment. Immediately before an experiment, stock solutions of drugs in DMSO were diluted 1:100 in imaging media distributed across an empty 96-well plate (treatment plate) following a randomized plate map. The imaging media consisted of 1×HBSS containing […] and […]. […] Data were from 2 plates with 2-3 wells being analyzed per plate. […]
Once imaging was complete, the images were exported, and analyzed using a custom Python script. […] The mask was generated by calculating the average fluorescence intensity for the entire image and using that value as a threshold. […] The % ΔF/F values for each well were calculated using the following equation: […]
Once imaging was complete, the images were exported, and analyzed using a custom Python script. […] The mask was generated by calculating the average fluorescence intensity for the entire image and using that value as a threshold. […]

For a further test, the system named is Sprague Dawley rats. Description: Rat forced swim test (FST). As to conditions: FST 24 h after compound administration; ketamine as comparator. The class given is in vivo. As for the experimental part: Rat Forced Swim Test (FST). This study was performed by Psychogenics (Paramus, NJ). Male Sprague Dawley rats were purchased from Envigo (Indianapolis, IN), and upon receipt, they were assigned unique identification numbers (tail marked) and group housed in ventilated cages with 3 rats per cage. All animals remained housed in groups of three for the remainder of the study. All rats were acclimated to the colony room for up to one week prior to dosing. During the period of acclimation, rats were examined and handled daily, and weighed to assure adequate health and suitability. The room temperature was maintained between 20° C. and 23° C. with a relative humidity of 30%-70%. Lab Rodent Diet 5001 (W.F. Fisher, Cat #11015) and water were provided ad libitum. […] All animals were carefully monitored to ensure their safety in the swim test and any animal unable to maintain a posture with its nose above water was immediately removed from the water and not used further in the study. […] This test lasted for 5 min and was video recorded. A blinded experimenter manually scored the videos for swimming, climbing, and immobility behavior. Scoring of the forced swim test was performed by trained technicians using a time sampling technique in which the animal in the video recorded test was viewed every 5 seconds and the behavior observed was noted (e.g., immobile, swimming, or climbing). […]

In the next test the test system is C57BL/6J mice. Description: Amphetamine induced locomotion. Particulars: pretreatment 1 mg/kg. It counts as in vivo, mouse. As for the experimental part:
Amphetamine Induced Locomotion. The amphetamine-induced hyperlocomotion assay was performed using male and female C57BL/6J mice that were approximately 8 weeks old at the time of the experiments. Animals were first placed in the test arena (40 cm×40 cm) for 15 min to obtain a basal reading of locomotion and habituate them to the testing arena. Next, animals were administered (+)-JRT (1 mg/kg) or VEH (2.5 mL/kg, i.p) and placed back in the test arena. After 15 min, the animals were administered D-amphetamine (3 mg/kg) or VEH (2.5 mL/kg) and placed back in the test arena for 60 minutes. Locomotion during the entire experiment was quantified using ANYmaze Video Tracking System, version 7.07 (Stoelting Co.).

Structures are written as SMILES.

Consider `CCN(CC)C(=O)[C@@H]1C=C2c3cccc4ccn(c34)C[C@H]2N(C)C1` [(+)-JRT], for which, in the test with PSYLI2 cells, the “hallucinogenic potential (psychLight)” value is listed as “low hallucinogenic potential”. In addition, the “antidepressant-like effects in rat FST” value in the test with Sprague Dawley rats was “antidepressant-like effects comparable to ketamine at substantially lower doses”. Besides, the “AMPH-induced hyperlocomotion, female mice” value in the test on C57BL/6J mice is “can block”.
